The values that follow come from patent US6642222B2, “Pyrano, piperidino, and thiopyrano compounds and methods of use” (Abbott Laboratories, priority 1998, dated 2003).

One assay deals with Landrace Pig Bladder. Nature of the assay: Functional potassium channel opening activity in isolated bladder strips (field-stimulated twitch). The note with it: for Index: ED50 for P1075 divided by ED50 for the test agonist, averaged over tissues; for Efficacy (% P1075) / Emax: maximal efficacy relative to P1075, field stimulated bladder strips; for pD2 / EC50: negative logarithm of ED50; for Emax / EC50: Sus scrofa; for EC50: read-out: pD2 (converted). How it is done: Compounds were evaluated for functional potassium channel opening activity using tissue strips obtained from Landrace pig bladders. Landrace pig bladders were obtained from female Landrace pigs of 9-30 kg. Landrace pigs were euthanized with an intraperitoneal injection of pentobarbital solution, Somlethal®, J. A. Webster Inc. Sterling Mass. The entire bladder was removed and immediately placed into Krebs Ringer bicarbonate solution (composition, mM: NaCl, 120; […] Dextrose, 4.7; […] Propranolol (0.004 mM) was included in all of the assays to block β-adrenoceptors. The trigonal and dome portions were […], Strips 3-5 […] (mm) wide and 20 mm long were prepared from the remaining tissue cut in a circular fashion. The mucosal layer was removed. One end was fixed to a stationary glass rod and the other to a Grass FT03 transducer at a basal preload of 1.0 g. Two parallel platinum electrodes were included in the stationary glass trod to provide field stimulation of 0.05 Hz, 0.5 milli-seconds at 20 volts. […] Tissues were allowed to equilibrate for at least 60 minutes and primed with 80 mM KCl. A control concentration response curve (cumulative) was generated for each tissue using the potassium channel opener […] as the control agonist. […] After a 60 minute rinsing period, a concentration response curve (cumulative) was generated for the test agonist in the same fashion as that used for the control agonist […]. The maximal efficacy of each compounds (expressed as % relative to […]) is reported. The amount of agent necessary to cause 50% of the agent's maximal response (ED50) was calculated using “ALLFIT” (DeLean et al., Am. J. […] Agonist potencies were also expressed as an index relative to […]. The index was calculated by dividing the ED50 for […] by the ED50 for the test agonist in a given tissue. Each tissue was used for only one test agonist, and the indices obtained from each tissue were averaged to provide an average index of potency.

For assay [1], the system named is Guinea-Pig Bladder (GPB) Cells. Nature of the assay: Membrane Hyperpolarization (MHP) assay, DiBAC(4)3 / FLIPR. The note with it: for Maximal Response (% P1075): maximal steady-state hyperpolarization, normalized to 10 μM P1075 (100%); for EC50: membrane hyperpolarization, GPB cells; for Emax: read-out: Maximal Response (% P1075), maximal steady-state hyperpolarization, normalized to 10 μM P1075 (100%).
Experimental: Compounds were evaluated for potassium channel opening activity using primary cultured guinea-pig urinary bladder (GPB) cells.
For the preparation of urinary bladder smooth muscle cells, urinary bladders were removed from male guinea-pigs (Hartley, Charles River, Wilmington, Mass.) weighing 300-400 grams (g) and placed in ice-cold Ca^2+-free Krebs solution (Composition, millimolar (mM): KCl, 2.7; KH2PO4, 1.5; NaCl, 75; Na2HPO4, 9.6; Na2HPO4.7H2O, 8; MgSO4, 2; glucose, 5; HEPES, 10; pH 7.4). Cells were isolated by enzymatic dissociation (Klockner, U. and Isenberg, G., Pflugers Arch. (1985), 405, 329-339). The bladder was cut into small sections and incubated in 5 milliliters (mL) of the Kreb's solution containing 1 milligram per milliliter (mg/mL) of collagenase (Sigma, St. Louis, Mo.) and 0.2 mg/mL of pronase (Calbiochem, La Jolla, Calif.) with continuous stirring in a cell incubator for 30 minutes. The mixture was then centrifuged at 1300× g for 5 minutes, and the pellet resuspended in Dulbecco's phosphate buffered saline (PBS) (GIBCO, Gaithersburg, Md.) and recentrifuged to remove residual enzyme. The cell pellet was resuspended in 5 mL growth media (composition: Dulbecco's modified Eagle's medium supplemented with 10% fetal bovine serum, 100 units/mL penicillin, 100 units/mL streptomycin and 0.25 mg/mL amphotericin B) and further dissociated by pipetting the suspension through a flame-polished Pasteur pipette and passing it through a polypropylene mesh membrane (Spectrum, Houston, Tex.). The cell density was adjusted to 100,000 cells/mL by resuspension in growth media. Cells were plated in clear-bottomed black 96-well plates (Packard) for membrane potential studies at a density of 20,000 cells/well and maintained in a cell incubator with 90% air: 10% CO2 until confluent. Cells were confirmed to be of smooth muscle type by cytoskeletal staining using a monoclonal mouse anti human-α-smooth muscle actin (Biomeda, Foster City, Calif.).
Functional activity at potassium channels was measured by evaluating changes in membrane potential using the bis-oxonol dye DiBAC(4)3 (Molecular Probes) in a 96-well cell-based kinetic assay system using a Fluorescent Imaging Plate Reader (FLIPR) (K. S. Schroeder et al., J. Biomed. Screen., v. 1 pp. 75-81 (1996)). DiBAC(4)3 is an anionic potentiometric probe which partitions between cells and extracellular solution in a membrane potential-dependent manner. With increasing membrane potential (for example, K^+ depolarization), the probe further partitions into the cell; this is measured as an increase in fluorescence due to dye interaction with intracellular lipids and proteins. Conversely, decreasing membrane potential (hyperpolarization by potassium channel openers) evokes a decrease in fluorescence.
Confluent guinea-pig urinary bladder cells cultured in black clear-bottomed 96-well plates were rinsed twice with 200 mL assay buffer (composition, mM: HEPES, 20; NaCl, 120; KCl, 2; CaCl2, 2; MgCl2, 1; glucose, 5; pH 7.4 at 25° C.) containing 5 μM DiBAC(4)3 and incubated with 180 mL of the buffer in a cell incubator for 30 minutes at 37° C. to ensure dye distribution across the membrane. After recording the baseline fluorescence for 5 minutes, the reference or test compounds, prepared at 10 times the concentration in the assay buffer, were added directly to the wells. Changes in fluorescence were monitored for an additional 25 minutes.
Routinely, five concentrations of P1075 or test compounds (log or half-log dilutions) were evaluated and the maximal steady-state hyperpolarization values (expressed as % relative to P1075) plotted as a function of concentration. The EC50 (concentration that elicites 50% of the maximal response for the test sample) values were calculated by non-linear regression analysis using a four parameter sigmoidal equation. The maximal micromolar EC50 response of each compound (expressed as % relative to P1075) is reported.

SMILES strings stand for the structures.

As to `O=C1COCC2=C1C(c1ccc(F)c(Br)c1)C1=C(CCS1(=O)=O)N2` (single isomer, unassigned; (+)) [Example 12, (+)-9-(3-bromo-4-fluorophenyl)-2,3,5,9-tetrahydro-4H-pyrano[3,4-b]thieno[2,3-e]pyridin-8(7H)-one 1,1-dioxide], in the assay with Landrace Pig Bladder, the Index came to 3.3, the “Efficacy (% P1075)” value came out at 85 % P1075 and the pD2 amounted to 7.2. Besides, in assay [1], the “Maximal Response (% P1075)” value was 101 % P1075 and the EC50 came to 14 nM.

For the compound `Cl.O=C1CNCC2=C1C(c1ccc(F)c(Br)c1)C1=C(COCC1=O)N2` (stereo not drawn) [Example 24, 5-(3-bromo-4-fluorophenyl)-5,8,9,10-tetrahydro-1H-pyrano[3,4-b][1,7]naphthyridine-4,6(3H,7H)-dione Hydrochloride], in the assay on Landrace Pig Bladder, the Index came out at 0.055, the Emax was 100% and the EC50 is 1000 nM. For the same compound, in assay [1] (Cavia porcellus), the EC50 was found to be 730 nM and the Emax amounted to 74%.

Regarding `O=C1COCC2=C1[C@H](c1ccc(F)c(Br)c1)C1=C(COC1=O)N2` (single isomer, unassigned) [Example 43], in the assay with Landrace Pig Bladder, the Index is recorded as 0.68, the Emax was determined as 88% and the EC50 was 200 nM. Further, in assay [1] (Cavia porcellus), the EC50 was found to be 11 nM and the Emax stood at 98%.

On to `Cl.O=C1CCCC2=C1C(c1ccc(F)c(Br)c1)C1=C(CNCC1=O)N2` (single isomer, unassigned; (+)) [Example 8, (+)-5-(3-bromo-4-fluorophenyl)-2,3,5,8,9,10-hexahydrobenzo[b][1,7]naphthyridine-4,6(1H, 7H)-dione Hydrochloride], for which, in the assay with Landrace Pig Bladder (Hydrochloride), the Index is listed as 0.023, the “Efficacy (% P1075)” value worked out at 90 % P1075 and the pD2 was 5.2. Besides, in assay [1] (Hydrochloride), the “Maximal Response (% P1075)” value is reported as 33 % P1075 and the EC50 amounted to 5000 nM.

In the assay with Landrace Pig Bladder, `O=C1COCC2=C1C(c1ccc(F)c(Br)c1)C1=C(CCS1(=O)=O)N2` (stereo not drawn) [Example 11, 9-(3-bromo-4-fluorophenyl)-2,3,5,9-tetrahydro-4H-pyrano[3,4-b]thieno[2,3-e]pyridin-8(7H)-one 1,1-dioxide] registered an Index of 1.2, an Emax of 91% and a pD2 of 6.8. Also, in assay [1] (Cavia porcellus), the Emax came out at 104%. Besides, the EC50 in assay [1] amounted to 23 nM.

Regarding `O=C1CCCC2=C1C(c1ccc(F)c(Br)c1)C1=C(COCC1=O)N2` (stereo not drawn) [Example 20, 5-(3-bromo-4-fluorophenyl)-5,8,9,10-tetrahydro-1H-pyrano[3,4-b]quinoline-4,6(3H, 7H)-dione], in the assay with Landrace Pig Bladder, the Index stood at 0.43, the Emax worked out at 93% and the EC50 was 2510 nM. In assay [1] (Cavia porcellus), the EC50 was 35 nM and the Emax came out at 93%.

For the compound `O=C1COCC2=C1[C@@H](c1ccc(F)c(I)c1)C1=C(COC1=O)N2` (single isomer, unassigned) [Example 79], in the assay on Landrace Pig Bladder, the Index worked out at 0.40, the Emax is 95% and the EC50 was 158 nM. Besides, in assay [1] (Cavia porcellus), the EC50 stood at 14 nM and the Emax came out at 90%.

Take `C=C(C)c1cc(C2C3=C(COCC3=O)NC3=C2C(=O)COC3)ccc1F` [Example 64, 5-(4-fluoro-3-isopropenylphenyl)-5,10-dihydro-1H,3H-dipyrano[3,4-b:4,3-e]pyridine-4,6(7H,9H)-dione]: in the assay on Landrace Pig Bladder, the Index is 0.031, the “Efficacy (% P1075)” value is reported as 95 % P1075 and the pD2 is reported as 5.5. Also, in assay [1], the “Maximal Response (% P1075)” value is 84 % P1075 and the EC50 worked out at 250 nM.

Turning to `N#Cc1cccc(C2C3=C(COCC3=O)NC3=C2C(=O)COC3)c1` [Example 29, 5-(3-cyanophenyl)-5,10-dihydro-1H,3H-dipyrano[3,4-b:4,3-e]pyridine-4,6(7H,9H)-dione], in the assay with Landrace Pig Bladder, the Index is listed as 0.075, the “Efficacy (% P1075)” value is recorded as 89 % P1075 and the pD2 is on record as 5.8. Moreover, in assay [1], the “Maximal Response (% P1075)” value is on record as 87 % P1075 and the EC50 is 1100 nM.

Regarding `O=C1COCC2=C1C(c1ccc(Cl)c([N+](=O)[O-])c1)C1=C(CCS1(=O)=O)N2` (single isomer, unassigned; (-)) [Example 19, (−)-9-(4-chloro-3-nitrophenyl)-2,3,5,9-tetrahydro-4H-pyrano[3,4-b]thieno[2,3-e]pyridin-8(7H)-one 1,1-dioxide], in the assay with Landrace Pig Bladder, the Index amounted to 0.70, the “Efficacy (% P1075)” value is reported as 100 % P1075 and the pD2 worked out at 6.0. Moreover, in assay [1], the “Maximal Response (% P1075)” value was 94 % P1075 and the EC50 came out at 1800 nM.

Take `O=C1COCC2=C1C(c1cc(Br)c(F)cc1O)C1=C(COCC1=O)N2` [Example 58, 5-(5-bromo-4-fluoro-2-hydroxyphenyl)-5,10-dihydro-1H,3H-dipyrano[3,4-b:4,3-e]pyridine-4,6(7H,9H)-dione]: in the assay on Landrace Pig Bladder, the Index was 0.19, the “Efficacy (% P1075)” value was determined as 84 % P1075 and the pD2 came to 6.2. For the same compound, in assay [1], the “Maximal Response (% P1075)” value turned out to be 94 % P1075 and the EC50 came out at 46 nM.

For `O=C1COCC2=C1C(c1ccc(F)c(-c3ccco3)c1)C1=C(COCC1=O)N2` [Example 57, 5-[4-fluoro-3-(2-furyl)phenyl]-5,10-dihydro-1H,3H-dipyrano[3,4-b:4,3-e]pyridine-4,6(7H,9H)-dione], in the assay on Landrace Pig Bladder, the Index turned out to be 0.090, the “Efficacy (% P1075)” value was found to be 45 % P1075 and the pD2 came out at 5.6. Moreover, in assay [1], the “Maximal Response (% P1075)” value was 69 % P1075 and the EC50 was found to be 4000 nM.

Regarding `O=C1COCC2=C1C(c1ccc(F)c(Br)c1)C1=C(CSCC1=O)N2` (stereo not drawn) [Example 22, 5-(3-bromo-4-fluorophenyl)-5,10-dihydro-1H,3H-pyrano[3,4-b]thiopyrano[4,3-e]pyridine-4,6(7H,9H)-dione], in the assay with Landrace Pig Bladder, the Index is 0.027, the Emax came out at 100% and the EC50 was 2510 nM. In assay [1] (Cavia porcellus), the EC50 came out at 46 nM and the Emax was found to be 85%.

For the compound `O=C1COCC2=C1C(c1ccc(Br)c(Br)c1)C1=C(COCC1=O)N2` [Example 55, 5-(3,4-dibromonhenyl)-5,10-dihydro-1H,3H-dipyrano [3,4-b:4,3-e]pyridine-4,6(7H,9H)-dione], in the assay with Landrace Pig Bladder, the Index amounted to 0.35, the “Efficacy (% P1075)” value was found to be 80 % P1075 and the pD2 was determined as 6.2. In addition, in assay [1], the “Maximal Response (% P1075)” value is recorded as 108 % P1075 and the EC50 was 3.9 nM.

As to `Cl.O=C1CCCC2=C1C(c1ccc(F)c(Br)c1)C1=C(CNCC1=O)N2` (stereo not drawn) [Example 2, 5-(3-bromo-4-fluorophenyl)-2,3,5,8,9,10-hexahydrobenzo [b][1,7]naphthyridine-4,6(1H, 7H)-dione Hydrochloride], in the assay with Landrace Pig Bladder (Hydrochloride), the Index is 0.041, the “Efficacy (% P1075)” value worked out at 99 % P1075 and the pD2 worked out at 5.8. Moreover, in assay [1] (Hydrochloride), the “Maximal Response (% P1075)” value stood at 88 % P1075 and the EC50 came to 650 nM.

Take `O=C1COCC2=C1C(c1ccc3nonc3c1)C1=C(COCC1=O)N2` [Example 34, 5-(2,1,3-benzoxadiazol-5-yl)-5,10-dihydro-1H,3H-dipyrano[3,4-b:4,3-e]pyridine-4,6(7H,9H)-dione]: in the assay with Landrace Pig Bladder, the Index came to 0.96, the “Efficacy (% P1075)” value is recorded as 93 % P1075 and the pD2 was determined as 7.0. Also, in assay [1], the “Maximal Response (% P1075)” value is listed as 88 % P1075 and the EC50 was found to be 91 nM.

Consider `Cl.O=C1CNCC2=C1C(c1ccc(F)c(Br)c1)C1=C(CCS1(=O)=O)N2` (stereo not drawn) [Example 10, 9-(3-Bromo-4-fluorophenyl)-2,3,5,6,7,9-hexahydrothieno [3,2-b][1,7]naphthyridin-8(4H)-one, 1,1-dioxide hydrochloride], for which, in the assay with Landrace Pig Bladder, the Index was determined as 0.0028, the “Efficacy (% P1075)” value is given as 96 % P1075 and the pD2 is 4.3. In addition, in assay [1], the “Maximal Response (% P1075)” value stood at 87 % P1075 and the EC50 worked out at 1400 nM.

On to `Cl.O=C1CCC2=C1C(c1ccc(F)c(Br)c1)C1=C(CNCC1=O)N2` (single isomer, unassigned; (+)) [Example 6, (+)-5-(3-bromo-4-fluorophenyl)-2,3,5,7,8,9-hexahydro-1H-cyclopenta[b][1,7]naphthyridine-4,6-dione Hydrochloride], for which the Index in the assay on Landrace Pig Bladder (Hydrochloride) amounted to 0.022. In the assay with Landrace Pig Bladder, the Emax came out at 100% and the EC50 was 3980 nM. In assay [1] (Cavia porcellus), the EC50 was 1000 nM and the Emax is 83%.
